Experimental data reported in PMC9778984, “5′-Chalcogen-Substituted Nucleoside Pyrophosphate and Phosphate Monoester Analogues: Preparation and Hydrolysis Studies” (International Journal of Molecular Sciences, 2022).
One block for each compound: values may come before it.

Tests used:
[1] = Hydrolysis of dinucleoside pyrophosphates at 90 °C, analysed by CZE and RP-HPLC; assay type: physicochemical; conditions: for half-life of the total disappearance: neutral conditions; for rate constant for the decomposition of the deadenylation (depurination) product / rate constant for the formation of the deadenylation (depurination) product: kinetics of parallel and consecutive reactions
Method: Reactions of pyrophosphates dASppA (1a) and 3′,5′-dTSppA (3) were studied at 90 °C. Samples taken from reaction solutions were analysed by two methods: capillary zone electrophores (CZE) and reversed-phase HPLC (RP-HPLC), for detection of polar and neutral reaction components, respectively. […] In general, the reactivity of 1a and 3 is low; the half-lives under neutral conditions are measured in tens of days even at 90 °C. The rate of the total disappearance of thiopyrophosphates 1a and 3 is practically pH-independent between pH 6 to 9. The reactivity increases at a lower pH; under alkaline conditions, the rate-enhancement is more modest.
Kinetic experiments with dinucleoside pyrophosphates 1a,b and 3 have been carried out using methods that have been reported previously, and are only briefly described below. Other experimental methods are described in detail in the Supplementary Materials (Figures S1 and S2, Tables S1 and S2).
Capillary zone electrophoretic (CZE) analysis was carried on an HP ^3DCE or on a Beckman Coulter P/ACE MDQA equipment. A fused silica capillary (57 cm effective length, 75 μm i.d.) was used. The background electrolyte was a 25 mM potassium phosphate buffer (pH 7.2). A voltage of 25–30 kV was applied and the compounds were detected at […] (HP) or 254 nm (Beckman).
RP-HPLC analysis was carried on an Agilent 1100 HPLC equipped with a DAD-detector. A Supelcosil LC-18 column (25 × 0.4 cm, particle size 5 μm) was used to separate reaction components. Eluents were mixtures of acetonitrile (MeCN) (Honeywell, Germany) and acetate buffer (0.05 M, pH 4.3) containing 0.1 M ammonium chloride (Sigma-Aldrich, Seelze, Germany). The gradient program used in routine analysis was as follows: 0–10 min isocratic 5% MeCN, 10–20 min a linear gradient to 33% MeCN, 20–30 min isocratic 33% MeCN, 30–35% a linear gradient to 5% MeCN. Flow rate was 1 mL/ min. UV-active compounds were detected at 260 nm.
Rate constants were calculated by applying the integrated first-order rate law to the disappearance of the starting material. Rate constants for the formation and decompositions of products were calculated by applying the rate law of parallel and consecutive reactions. In the case of 2, the concentration of the starting material and products were determined using calibration curves based on authentic samples. Diphenyl phosphate was used as an internal standard in reactions.

[2] = pKa of the phosphoryl moieties by 31P NMR titration; assay type: physicochemical; conditions: from Pβ resonance shift on acidification of aqueous solution; represents a maximum pKa value
Method: (§1) In order to further assess the potential for chalcogen-substituted pyrophosphate linkages to enable targeted drug delivery, the pKa values of the phosphoryl moieties were assessed using ^31P NMR titration. […] Similar values were determined for dTChppA (3.2 for 2a; 3.4 for 2b) although maximal shifts of 0.2 ppm were observed and a second inflection at ca. pH 8.5 may indicate that the shifts reflect nucleobase ionisation as significant intramolecular base stacking occurs in AppA and other dinucleoside pyrophosphates. However, the titrations’ inflections represent a maximum pKa value and therefore indicate that these moieties will be fully charged at physiological pH. We therefore briefly compared the cleavage of these pyrophosphates using snake venom monitoring the reactions of NADH, dTSppA (2a) and dTSeppA (2b) by ^31P NMR. Over 95% consumption of the native pyrophosphate substrate was observed consumed within one hour. In contrast, ca. 25% and 20% of the sulfur- and selenium-substituted analogues were cleaved during this timeframe. […] In contrast, digestion of dTSeppA plateaued at ca. 45% which may result from denaturation of the protein following release of 5′-dTSeMP and subsequent spontaneous hydrolysis to the corresponding selenol and its subsequent interaction with the active site zinc dyad and disulfide linkages.

[3] = test system: snake venom (SVPDE); assay: Snake venom (SVPDE) digestion monitored by 31P NMR; assay type: biochemical; conditions: for mM consumed (31P NMR): 10 mM substrate, 37 °C, pH 7.5; for substrate consumed (digestion): over the subsequent 14 h; for substrate consumed (cleaved): within one hour
Method: as §1
To a solution of 10 mM substrate (NADH/dTSppA (2a)/dTSeppA (2b)) in aqueous buffer (TrisꞏHCl (50 mM, pH 7.5), NaCl (50 mM), 1mM MgCl2ꞏ(H2O)6) was added a solution of snake venom 0.2 mg/µL (10 µL). The reaction mixtures were incubated at 37°C for 30 minutes. Digestion was monitored by 31P NMR. dX(Ch)ppA SV P D digestion […]
mM NADH mM dTSppA mM dTSeppA time/h consumed time/h consumed time/h consumed

[4] = Hydrolysis of nucleotides (phosphorus-chalcogen bond cleavage of monoesters) in aqueous buffer, monitored by 31P NMR; assay type: physicochemical; conditions: for ΔH^‡ of phosphorus-chalcogen bond cleavage / ΔS^‡ of phosphorus-chalcogen bond cleavage: neutral pH, Eyring parameters from variable temperature NMR
Method: Novel sulfur and selenium substituted 5′,5′-linked dinucleoside pyrophate analogues were prepared in a vibration ball mill from the corresponding persilylated monophosphate. The chemical hydrolysis of pyrophosphorochalcogenolate-linked dimers was studied over a wide pH-range. […] The chemical stability of the precursor phosphorochalcogenolate monoesters was also investigated. […] The rate of dephosphorylation was dependent upon both the nature of the chalcogen and the pH. The integrity of the P-S bond in the corresponding phosphorothiolate was maintained at high pH but rapidly degraded at pH 3. In contrast, P-Se bond cleavage of the phosphoroselenolate monoester was rapid and the rate increased with alkalinity. The results obtained in kinetic experiments provide insight on the reactivity of the novel pyrophosphates studied as well as of other types of thiosubstituted biological phosphates.
Evidence for a dissociative transition state can be seen in the Eyring parameters derived from variable temperature NMR analysis of the phosphorus-chalcogen bond cleavage kinetics at 29 8K, 308 K and 318 K under neutral pH conditions. Thus, positive ΔS^‡ values of 79 and 35 J mol^−1 K^−1 were determined for 5′-dTSMP (4a) and 5′-dTSeMP (4b), respectively.

[5] = as above; assay type: physicochemical

SMILES: Nc1ncnc2c1ncn2[C@@H]1O[C@H](COP(=O)(O)OP(=O)(O)SC[C@H]2O[C@@H](n3cnc4c(N)ncnc43)[C@H](O)[C@@H]2O)[C@@H](O)[C@H]1O [1a, 5′-Thioadenosine 5′-Pyrophosphate (P′→5′) adenosine]
- half-life of the total disappearance ([1]; 90 °C): tens of days
- rate constant of the total disappearance ([1]; pH 2, 90 °C): 9.3e-05 s⁻¹
- phosphate hydrolysis rate constant relative to that reported for Ap2A (1c) ([1]; pH 2, 90 °C, same conditions, Ap2A value from ref 33): six times larger
- rate constant of phosphate hydrolysis ([1]; pH 2, 90 °C, total disappearance divided, assuming the two deadenylation routes are equally fast): 5.5e-05 s⁻¹
- pKa [2]: 3

SMILES: Nc1ncnc2c1ncn2[C@@H]1O[C@H](COP(=O)(O)OP(=O)(O)[Se]C[C@H]2O[C@@H](n3cnc4c(N)ncnc43)[C@H](O)[C@@H]2O)[C@@H](O)[C@H]1O [1b, 5′-deoxy-5′-selenoadenosine 5′-pyrophosphate (P′ →5′) adenosine]
- rate constant of the total disappearance ([1]; pH 2, 90 °C): (1.55 ± 0.04) × 10^−4 s^−1
- rate constants from the initial linear plot relative to those obtained for 1a ([1]; pH above acidic, where the reaction is not first-order, 90 °C, difference largest under neutral conditions): 5 to 20 times
- pKa [2]: 3.3

SMILES: Cc1cn([C@H]2C[C@H](O)[C@@H](CSP(=O)(O)OP(=O)(O)OC[C@H]3O[C@@H](n4cnc5c(N)ncnc54)[C@H](O)[C@@H]3O)O2)c(=O)[nH]c1=O [2a, 5'-thiothymidine 5'-pyrophosphate (P' →5') adenosine]
- pKa [2]: 3.2
- mM consumed (31P NMR) ([3]; time 1 h): 2.57 mM
- mM consumed (31P NMR) ([3]; time 2 h): 4.17 mM
- mM consumed (31P NMR) ([3]; time 4 h): 7.12 mM
- mM consumed (31P NMR) ([3]; time 15 h): 10 mM
- substrate consumed (digestion) [3]: complete consumption
- substrate consumed (cleaved) [3]: ca. 25%

SMILES: Cc1cn([C@H]2C[C@H](O)[C@@H](C[Se]P(=O)(O)OP(=O)(O)OC[C@H]3O[C@@H](n4cnc5c(N)ncnc54)[C@H](O)[C@@H]3O)O2)c(=O)[nH]c1=O [2b, 5′-deoxy-5′-selenothymidine 5′-pyrophosphate (P′ →5′) adenosine]
- pKa [2]: 3.4
- mM consumed (31P NMR) ([3]; time 1 h): 2.13 mM
- mM consumed (31P NMR) ([3]; time 2 h): 3.19 mM
- mM consumed (31P NMR) ([3]; time 3 h): 3.98 mM
- mM consumed (31P NMR) ([3]; time 5 h): 4.41 mM
- mM consumed (31P NMR) ([3]; time 7 h): 4.45 mM
- mM consumed (31P NMR) ([3]; time 9 h): 4.48 mM
- mM consumed (31P NMR) ([3]; time 15 h): 4.61 mM
- substrate consumed (digestion) [3]: ca. 45%
- substrate consumed (cleaved) [3]: ~20%

SMILES: Cc1cn([C@H]2C[C@H](O)[C@@H](CSP(=O)(O)O)O2)c(=O)[nH]c1=O [4a]
- time for hydrolysis ([4]; acidic conditions, 25 °C): within hours
- ΔH^‡ of phosphorus-chalcogen bond cleavage [4]: 30.23 kcal/mol
- ΔS^‡ of phosphorus-chalcogen bond cleavage [4]: 79 J mol^−1 K^−1
- k (rate constant for the hydrolysis) ([4]; pH 3, 298 K): 152 10^−6 s^−1
- reactivity difference between 5′-dTSMP (4a) and 5′-TMP (4c) ([4]; pH 3, estimated on the basis of Table 1): approximately 700,000 fold
- k (rate constant for the hydrolysis) ([4]; pH 7, 298 K): 5.19 10^−6 s^−1
- k (rate constant for the hydrolysis) ([4]; pH 7, 308 K): 17.1 10^−6 s^−1
- k (rate constant for the hydrolysis) ([4]; pH 7, 318 K): 58.4 10^−6 s^−1
- k (rate constant for the hydrolysis) ([4]; pH 11, 298 K): 0.34 10^−6 s^−1

SMILES: Cc1cn([C@H]2C[C@H](O)[C@@H](C[Se]P(=O)(O)O)O2)c(=O)[nH]c1=O [4b]
- k (rate constant for the hydrolysis) ([5]; pH 7, 303 K): 75.1 10^−6 s^−1
- k (rate constant for the hydrolysis) ([5]; pH 7, 313 K): 297 10^−6 s^−1
- ΔH^‡ of phosphorus-chalcogen bond cleavage [4]: 26.43 kcal/mol
- ΔS^‡ of phosphorus-chalcogen bond cleavage [4]: 35 J mol^−1 K^−1
- k (rate constant for the hydrolysis) ([4]; pH 3, 298 K): 53.1 10^−6 s^−1
- k (rate constant for the hydrolysis) ([4]; pH 7, 298 K): 16.8 10^−6 s^−1
- k (rate constant for the hydrolysis) ([4]; pH 11, 298 K): 14.4 10^−6 s^−1

- k (rate constant for the hydrolysis) ([4]; pH 3, 363 K): 2.60 10^−6 s^−1
SMILES: Cc1cn([C@H]2C[C@H](O)[C@@H](COP(=O)(O)O)O2)c(=O)[nH]c1=O [4c, 5′-TMP, reference compound]

SMILES: NC(=O)C1=CN([C@@H]2O[C@H](COP(=O)(O)OP(=O)(O)OC[C@H]3O[C@@H](n4cnc5c(N)ncnc54)[C@H](O)[C@@H]3O)[C@@H](O)[C@H]2O)C=CC1 [NADH, reference compound]
- mM consumed (31P NMR) ([3]; time 1 h): 9.62 mM
- mM consumed (31P NMR) ([3]; time 2 h): 10 mM
- substrate consumed (cleaved) [3]: Over 95%

SMILES: Cc1cn([C@H]2C[C@H](S[P@](=O)(O)O[P@](=O)(O)OC[C@H]3O[C@@H](n4cnc5c(N)ncnc54)[C@H](O)[C@@H]3O)[C@@H](CO)O2)c(=O)[nH]c1=O [compound 3]
- half-life of the total disappearance ([1]; 90 °C): tens of days
- rate constant for dethyminylation ([1]; neutral pH, 90 °C, non-linear regression on thymine formation, rather approximate): (2.2 ± 0.2) × 10^−7 s^−1

SMILES: Nc1ncnc2c1ncn2[C@@H]1O[C@H](CS[P@](=O)(O)O[P@](=O)(O)OC[C@@H](O)[C@@H](O)[C@@H](O)C=O)[C@@H](O)[C@H]1O [compound 13]
- rate constant for the decomposition of the deadenylation (depurination) product ([1]; pH 2, 90 °C): 3.1e-05 s⁻¹
- rate constant for the formation of the deadenylation (depurination) product ([1]; pH 2, 90 °C): 1.9e-05 s⁻¹

SMILES: Cc1cn([C@H]2C[C@H](S[P@](=O)(O)O[P@](=O)(O)OC[C@@H](O)[C@@H](O)[C@@H](O)C=O)[C@@H](CO)O2)c(=O)[nH]c1=O [compound 18]
- rate constant for the decomposition of the deadenylation (depurination) product ([1]; pH 2, 90 °C): 2e-05 s⁻¹
- rate constant for the formation of the deadenylation (depurination) product ([1]; pH 2, 90 °C): 2.3e-05 s⁻¹
